Test results published in patent US20120157471A1, “BENZIMIDAZOLE DERIVATIVES” (PFIZER INC., priority 2009, published 2012).

Tests used:
[1] = target: T1, human Smo (amino acids 181-787) (Homo sapiens, UniProt Q99835); assay: Smo radioligand competition binding assay (displacement of 3H-PF-03451358 from HEK293 membranes); settings: for inhibition at 0.05 µM: 0.05 μM test compound, displacement of 3H-PF-03451358, read-out: SMO % inh. @ 0.05 μM; for IC50: radioligand competition binding
T1 construct: expressed in transfected cells; membrane preparation
T1 sequence (Q99835 181-787): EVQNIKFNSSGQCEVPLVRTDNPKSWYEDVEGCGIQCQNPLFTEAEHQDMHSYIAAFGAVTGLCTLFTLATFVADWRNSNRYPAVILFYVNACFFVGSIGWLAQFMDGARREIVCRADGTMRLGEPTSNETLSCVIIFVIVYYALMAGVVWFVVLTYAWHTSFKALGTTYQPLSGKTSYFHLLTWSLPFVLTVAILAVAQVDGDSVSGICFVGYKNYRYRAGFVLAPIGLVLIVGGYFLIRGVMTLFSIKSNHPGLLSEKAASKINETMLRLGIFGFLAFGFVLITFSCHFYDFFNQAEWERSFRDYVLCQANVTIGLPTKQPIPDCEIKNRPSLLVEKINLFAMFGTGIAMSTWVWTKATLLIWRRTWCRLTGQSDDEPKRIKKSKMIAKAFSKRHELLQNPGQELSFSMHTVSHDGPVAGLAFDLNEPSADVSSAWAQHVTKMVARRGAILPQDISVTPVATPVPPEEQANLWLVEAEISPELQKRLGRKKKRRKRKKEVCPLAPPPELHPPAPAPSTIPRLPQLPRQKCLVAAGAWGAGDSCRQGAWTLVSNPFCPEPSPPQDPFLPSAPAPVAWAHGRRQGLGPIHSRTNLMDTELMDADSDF
Outline: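 Membranes (40 μg protein/well) from HEK293 expressing murine Igk-leader-fused Smo 181-787 incubated 2 h at room temperature with 3 nM 3H-PF-03451358 in Tris pH 7.5/NaCl/MgCl2/EDTA/BSA buffer; filter-bound counts by scintillation. Nonspecific binding with 30 μM cold PF-03451358; IC50 from four-parameter fit of % inhibition.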

Gli-Luc/MEF cells (Smo) = assay: Gli-Luc/MEF assay (Shh-stimulated luciferase reporter under the Gli response element); type: cell-based, mouse; settings: Mus musculus, MEF, 48 h
Method: The Gli-Luc/MEF cells obtained from Gli-Luc transgenic mice (Pfizer CoE, Genetically Modified Mice) contain a luciferase reporter gene under the control of the Gli response element. Luciferase activity stimulated with Sonic hedgehog ligand was inhibited by Smo inhibitors, and IC50 was subsequently calculated.
Plates were incubated at 37° C. and 5% CO2 overnight. On day two, cells were dosed with test compounds at a final concentration ranging from […] to 50 μM at a 3-time series dilution. Immediately after dosing cells with compounds, recombinant mouse sonic hedgehog (Shh, R&D Systems 464-SH) was added to a final concentration of 2 μg/mL. The cells were incubated with compounds and Shh for 48 hours at 37° C. and 5% CO2. Luciferase assays were conducted on Day 4 using the Bright-Glo Luciferase assay system (Promega E2620) according to Promega's protocol. Briefly, Bright-Glo luciferase reagent was made up and 25 uL were added to each well of the 384-well plate containing media. Plates were kept at room temperature for 5 minutes, and then read on an Envision Luminescence plate reader (Perkin-Elmer). IC50 of the inhibition was calculated by using GraphPad Prism.

Row | SMILES | inhibition at 0.05 µM [1] [%] | IC50 [1] [nM] | IC50 (Gli-Luc/MEF cells (Smo)) [nM]
1 | Cn1c(-c2cc(N3CCN(C(=O)CCS(C)(=O)=O)CC3)ncc2F)nc2ccccc21 [Example D-18, 1-{4-[5-fluoro-4-(1-methyl-1H-benzimidazol-2-yl)pyridin-2-yl]piperazin-1-yl}-3-(methylsulfonyl)propan-1-one] | 100 | 11 | 3
2 | CN1CC2(CCN(c3cc(-c4nc5ccccc5n4C)c(Cl)cn3)CC2)CC1=O [Example A-77, 8-[5-chloro-4-(1-methyl-1H-benzimidazol-2-yl)pyridin-2-yl]-2-methyl-2,8-diazaspiro[4.5]decan-3-one] | 92 | 29 | 15
3 | Cn1c(-c2cc(N3CCOCC3)ncc2Cl)nc2ccccc21 [Example A-34, 2-(5-chloro-2-morpholin-4-ylpyridin-4-yl)-1-methyl-1H-benzimidazole] | 95 | 22 | 16
4 | Cn1c(-c2cc(N3CCN(C(=O)CC(C)(C)O)CC3)ncc2Cl)nc2ccccc21 [Example A-190, 4-{4-[5-chloro-4-(1-methyl-1H-benzimidazol-2-yl)pyridin-2-yl]piperazin-1-yl}-2-methyl-4-oxobutan-2-ol] | 98 | 7 | 1.4
5 | CN(C1CCN(c2cc(-c3nc4ccccc4n3C)c(Cl)cn2)C1)S(C)(=O)=O (stereo not drawn) [Example A-181, N-{1-[5-chloro-4-(1-methyl-1H-benzimidazol-2-yl)pyridin-2-yl]pyrrolidin-3-yl}-N-methylmethanesulfonamide] | 98 | 11 | 9
6 | Cn1c(-c2cc(N3CCN(S(=O)(=O)CCO)CC3)ncc2F)nc2ccccc21 [Example D-15, 2-({4-[5-fluoro-4-(1-methyl-1H-benzimidazol-2-yl)pyridin-2-yl]piperazin-1-yl}sulfonyl)ethanol] | 101 | 19 | 11
7 | CC(C)NC(=O)NC1CN(c2cc(-c3nc4ccccc4n3C)c(Cl)cn2)C1 [Example A-188, 1-{1-[5-chloro-4-(1-methyl-1H-benzimidazol-2-yl)pyridin-2-yl]azetidin-3-yl}-3-isopropylurea] | 97 | 15 | 10
8 | Cn1c(-c2cc(N3CCC(N4CCC(O)CC4)CC3)ncc2Cl)nc2ccccc21 [Example A-119, 1′-[5-chloro-4-(1-methyl-1H-benzimidazol-2-yl)pyridin-2-yl]-1,4′-bipiperidin-4-ol] | 64 | – | 111
9 | COC1CCOC2(CCN(c3cc(-c4nc5ccccc5n4C)c(Cl)cn3)CC2)C1 (stereo not drawn) [Example A-90, 9-[5-chloro-4-(1-methyl-1H-benzimidazol-2-yl)pyridin-2-yl]-4-methoxy-1-oxa-9-azaspiro[5.5]undecane] | 88 | 71 | 16
10 | Cn1c(-c2cc(N3C[C@@H](CO)[C@@H](CO)C3)ncc2Cl)nc2ccccc21 [Example A-82, {(3R,4S)-1-[5-chloro-4-(1-methyl-1H-benzimidazol-2-yl)pyridin-2-yl]pyrrolidine-3,4-diyl}dimethanol] | 91 | 43 | 16
11 | Cn1c(-c2cc(N3C[C@@H](CO)C(C)(CO)C3)ncc2Cl)nc2ccccc21 (stereo in doubt) [Example A-95, {(3R,4S)-1-[5-chloro-4-(1-methyl-1H-benzimidazol-2-yl)pyridin-2-yl]-3-methylpyrrolidine-3,4-diyl}dimethanol] | 86 | 70 | 38
12 | Cc1cnc(N2CCC(S(C)(=O)=O)CC2)cc1-c1nc2ccccc2n1C [Example E-5, 1-methyl-2-{5-methyl-2-[4-(methylsulfonyl)piperidin-1-yl]pyridin-4-yl)-1H-benzimidazole] | 89 | 59 | 58.9
13 | Cn1c(-c2cc(N3CCn4c(nnc4C(F)F)C3)ncc2Cl)nc2ccccc21 [Example A-101, 7-[5-chloro-4-(1-methyl-1H-benzimidazol-2-yl)pyridin-2-yl]-3-(difluoromethyl)-5,6,7,8-tetrahydro[1,2,4]triazolo[4,3-a]pyrazine] | 81 | 103 | 95
14 | CN1CC2(CCN(c3cc(-c4nc5ccccc5n4C)c(Cl)cn3)CC2)OC1=O [Example A-197, 8-[5-chloro-4-(1-methyl-1H-benzimidazol-2-yl)pyridin-2-yl]-3-methyl-1-oxa-3,8-diazaspiro[4.5]decan-2-one] | 96 | 10 | 6.9
15 | Cc1cnc(N2CCC(CS(C)(=O)=O)CC2)cc1-c1nc2ccccc2n1C [Example E-2, 1-methyl-2-(5-methyl-2-{4-[(methylsulfonyl)methyl]piperidin-1-yl}pyridin-4-yl)-1H-benzimidazole] | 99 | 18 | 20.9
16 | Cn1c(-c2cc(N3CCC(O)(CN4CCOCC4)CC3)ncc2Cl)nc2ccccc21 [Example A-88, 1-[5-chloro-4-(1-methyl-1H-benzimidazol-2-yl)pyridin-2-yl]-4-(morpholin-4-ylmethyl)piperidin-4-ol] | 89 | 61 | 28
17 | CN(C)CC(=O)N1CCN(c2cc(-c3nc4ccccc4n3C)c(Cl)cn2)CC1 [Example A-192, 2-{4-[5-chloro-4-(1-methyl-1H-benzimidazol-2-yl)pyridin-2-yl]piperazin-1-yl}-N,N-dimethyl-2-oxoethanamine] | 87 | 15 | 2.4
18 | Cc1ccc(N2CCC(NS(C)(=O)=O)CC2)nc1-c1nc2ccccc2n1C [Example B-13, N-{1-[5-methyl-6-(1-methyl-1H-benzimidazol-2-yl)pyridin-2-yl]piperidin-4-yl}methanesulfonamide] | 98 | 11 | 8.2
19 | Cn1c(-c2cc(N3CC(NS(=O)(=O)CCO)C3)ncc2Cl)nc2ccccc21 [Example A-200, N-{1-[5-chloro-4-(1-methyl-1H-benzimidazol-2-yl)pyridin-2-yl]azetidin-3-yl}-2-hydroxyethanesulfonamide] | 98 | 15 | 7.6
20 | Cn1c(-c2nc(N3CCN(C(=O)CCO)CC3)ncc2Cl)nc2ccccc21 [Example C-17, 3-{4-[5-chloro-4-(1-methyl-1H-benzimidazol-2-yl)pyrimidin-2-yl]piperazin-1-yl}-3-oxopropan-1-ol] | 98 | – | 17.2
21 | Cn1c(-c2ccnc(N3CCC(O)CC3)c2)nc2ccccc21 [Example A-18, 1-[4-(1-methyl-1H-benzimidazol-2-yl)pyridin-2-yl]piperidin-4-ol] | 79 | 75 | 115
22 | Cn1c(-c2cc(N3CCC(C(=O)N4CCCC4)CC3)ncc2Cl)nc2ccccc21 [Example A-100, 2-{5-chloro-2-[4-(pyrrolidin-1-ylcarbonyl)piperidin-1-yl]pyridin-4-yl}-1-methyl-1H-benzimidazole] | 83 | 55 | 21
23 | CC(=O)NC1CN(c2cc(-c3nc4ccccc4n3C)c(Cl)cn2)C1 [Example A-43, N-{1-[5-chloro-4-(1-methyl-1H-benzimidazol-2-yl)pyridin-2-yl]azetidin-3-yl}acetamide] | 86 | 190 | 92
24 | Cn1c(-c2cc(N3CCCN(C4=NCCC(=O)N4)CC3)ncc2Cl)nc2ccccc21 [Example A-130, 2-{4-[5-chloro-4-(1-methyl-1H-benzimidazol-2-yl)pyridin-2-yl]-1,4-diazepan-1-yl}-5,6-dihydropyrimidin-4(3H)-one] | 53 | – | 129
25 | Cn1c(-c2cc(N3CCN(C4CCS(=O)(=O)C4)CC3)ncc2Cl)nc2ccccc21 (stereo not drawn) [Example A-86, 2-{5-chloro-2-[4-(1,1-dioxidotetrahydro-3-thienyl)piperazin-1-yl]pyridin-4-yl}-1-methyl-1H-benzimidazole] | 90 | 61 | 43
26 | Cn1c(-c2cc(N3CC[C@@H](O)[C@H](O)C3)ncc2Cl)nc2ccccc21 [Example A-63, (3R,4R)-1-[5-chloro-4-(1-methyl-1H-benzimidazol-2-yl)pyridin-2-yl]piperidine-3,4-diol] | 95 | 25 | 18
27 | CCn1c(-c2cc(N3CCN(C(C)=O)CC3)ncc2Cl)nc2ccccc21 [Example A-214, 2-[2-(4-acetylpiperazin-1-yl)-5-chloropyridin-4-yl]-1-ethyl-1H-benzimidazole] | 63 | 432 | 124
28 | CCS(=O)(=O)N1CCN(c2cc(-c3nc4ccccc4n3C)c(Cl)cn2)CC1 [Example A-27, 2-{5-chloro-2-[4-(ethylsulfonyl)piperazin-1-yl]pyridin-4-yl}-1-methyl-1H-benzimidazole] | 93 | 49 | 5
